According to patent publication US20250032493A1, “Methods for Treating Diseases Using MALT1 Inhibitors” (RARIFIED BIOSCIENCES, INC., priority 2021, published 2025):
Entries after “also recorded” stand apart in the source; their conditions may differ.

Experiments:
[1] = tested on: rat collagen induced arthritis (CIA) model; assay: Rat collagen-induced arthritis model: clinical score; details: for reduction in the clinical score: in comparison to the vehicle treatment
Source text: Adult female Lewis Rats (180-200 g body weight) were immunized subcutaneously with Type II bovine collagen/Incomplete Freund's Adjuvant emulsion on Day 0 and Day 7. On Day 14 rats were randomized based on clinical disease scores in different treatment groups. Rats received either once daily (q.d) dose of compounds via oral gavage or Vehicle (0.5% Carboxymethylcellulose-Na+0.5% Tween 80 in water, suspension) for 2 weeks. Naïve rats used as controls.

[2] = tested on: splenic Tregs; assay: Rat CIA model: splenic Treg levels; type: in vivo; details: for reduction in the Treg levels: in comparison to vehicle
Procedure: For isolation of synovial fluid prior to study termination, animals were anesthetized and the skin on the hind limbs were separated to ensure exposure of knee joint. A small incision was made near the top of the knee joint and the articular cavity was rinsed with 60 μl phosphate-buffered saline (PBS) for 2 time and ˜50-60 μl synovial fluid was collected. The synovial fluid samples were spun down, and the supernatant stored at −80° C. prior to cytokine analysis. At study termination, plasma was prepared from whole blood and stored at −80° C. prior to cytokine analysis and measurement of total and anti-collagen IgG. Single cell suspensions were prepared from harvested spleens following standard methods and Treg frequencies measured by flow cytometry-based immunophenotyping of freshly isolated cells.
Harvested spleens were homogenized in cold PBS and cellular debris removed by passing through a […] cell strainer. The cell suspension was centrifuged at 300×g for 5 min at 4° C. and the pellet was treated with 1×RBC lysis buffer per manufacturer's protocol (Thermofisher). The washed cell pellet was resuspended for a final concentration of 5-10×10^6 cells/ml and 100 μl of cell suspension was processed for immunophenotyping. […] Cells were washed with cold FACS wash buffer (BD) and fixed with 1×FoxP3/Transcription Factor Fixation Buffer (Thermofisher) for overnight at 4° C. […] Cells were washed 2-3× with the permeabilization and wash buffer as mentioned earlier, and finally resuspended in FACS wash buffer. Samples were acquired on a BD LSRFortessa flow cytometer and data analyzed using the FlowJo software (BD).

[3] = tested on: Tregs; assay: Naïve mice: Treg levels after 4 weeks of dosing; type: in vivo; details: 100 mg/kg dose, in comparison to vehicle control
Procedure: Mice were dosed for 4 weeks with REO-751 or REO-095 and splenocytes were analyzed for Treg levels. Specifically, REO-751 or REO-095 MALT1 inhibitors were dosed at one of 1 mg/kg (mpk), 10 mg/kg (mpk), or 100 mg/kg (mpk).

[4] = target: T1, MALT1 (Homo sapiens, UniProt Q9UDY8); assay: Example IC50 and IC90 values of MALT1 inhibitors (blood concentration targets); type: cell-based; details: example values, blood concentration target; read-out: IC90
T1 sequence (Q9UDY8 1-824): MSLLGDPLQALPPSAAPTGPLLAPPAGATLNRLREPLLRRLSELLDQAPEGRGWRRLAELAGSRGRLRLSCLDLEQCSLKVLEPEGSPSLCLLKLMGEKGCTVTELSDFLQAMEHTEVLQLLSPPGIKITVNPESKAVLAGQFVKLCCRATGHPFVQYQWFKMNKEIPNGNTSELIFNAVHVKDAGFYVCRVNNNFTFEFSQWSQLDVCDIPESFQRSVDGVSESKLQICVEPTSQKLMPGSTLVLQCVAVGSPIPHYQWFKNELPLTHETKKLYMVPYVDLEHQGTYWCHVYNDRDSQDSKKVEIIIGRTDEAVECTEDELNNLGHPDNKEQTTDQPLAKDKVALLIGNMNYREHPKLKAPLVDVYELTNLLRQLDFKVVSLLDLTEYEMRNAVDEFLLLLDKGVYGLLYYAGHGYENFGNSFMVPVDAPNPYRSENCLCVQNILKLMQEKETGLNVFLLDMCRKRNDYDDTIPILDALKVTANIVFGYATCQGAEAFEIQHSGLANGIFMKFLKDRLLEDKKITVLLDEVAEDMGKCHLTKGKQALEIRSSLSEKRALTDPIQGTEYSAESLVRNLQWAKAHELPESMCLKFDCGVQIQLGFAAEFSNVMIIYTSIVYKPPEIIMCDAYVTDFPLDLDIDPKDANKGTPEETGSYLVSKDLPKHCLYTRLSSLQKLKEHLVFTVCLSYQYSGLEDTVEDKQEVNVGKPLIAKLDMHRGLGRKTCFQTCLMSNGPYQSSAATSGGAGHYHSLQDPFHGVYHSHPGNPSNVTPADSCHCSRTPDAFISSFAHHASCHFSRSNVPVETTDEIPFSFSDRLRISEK
Source text: In various embodiments, the plasma PK profile of the MALT1 inhibitor refers to a time over an IC50 blood concentration target following administration to the subject. As used herein, a “time over an IC50 blood concentration target” refers to a period of time following administration in which a concentration of the MALT1 inhibitor in the subject's blood is above the IC50 value.
In various embodiments, the plasma PK profile of the MALT1 inhibitor refers to a time over an IC90 blood concentration target following administration to the subject. As used herein, a “time over an IC90 blood concentration target” refers to a period of time following administration in which a concentration of the MALT1 inhibitor in the subject's blood is above the IC90 value.

[5] = target: T1, MALT1; assay: IC50 and Kd values of MALT1 inhibitors (FIG. 17C)
[6] = tested on: sclerodermatous GVHD (scGVHD) model; assay: Mouse GVHD (scGVHD) model: GVHD score and progression-free survival; type: in vivo, mice; details: 100 mg/kg orally once daily days 21-56, at the end (Day 56)
Procedure: In this example, REO-751 MALT1 inhibitor at a dose of 100 mg/kg was administered to mice of a graft versus host disease (GVHD) model to investigate the impact of the administration of the MALT1 inhibitor. The effects of MALT1 inhibitors were evaluated in scGVHD and delayed-type hypersensitivity (DTH) models. For the scGVHD model, bone marrow (1E7 cells) and splenocytes (4E6) from LP/J donors were transferred to C57Bl/6 recipients that had received 8.5. Gy of total irradiation on the previous day. For the DTH model, female Balb/c mice were immunized with keyhole limpet hemocyanin (KLH) subcutaneously on day 0 and challenged with KLH intradermally 7 days later.
(§1) At time=0, mice were dosed with 1) naive, 2) vehicle, 3) REO-751 MALT1 inhibitor (100 mg/kg), or 4) ruxolitinib (60 mg/kg). […] GVHD scores were determined by monitoring the behavior of the mice post-administration according to the following grading system.
FIGS. 22A-22F show results following administration of a MALT1 inhibitor. Here, “Cpd1” and Cpd2” as shown in FIGS. 22A-22F refer to REO-751 MALT1 inhibitor. FIGS. 22A and 22B show overall survival (OS) and progression-free survival (PFS) Kaplan Meier curves, respectively, in a murine model of sclerodermatous GVHD (scGVHD) following administration of a MALT1 inhibitor. […]

[7] = tested on: spleen TFH cells, GC B cells, Treg cells; assay: Mouse GVHD model: spleen cell populations (TFH, GC B cells, Tregs); type: in vivo, mice
Source text: Here, FIGS. 22C-22E show percentages of each cell population in spleen, as measured by flow cytometry.

[8] = Mouse GVHD model: pharmacokinetics; type: in vivo, mice; details: C57Bl/6, blood, oral; 100 mg/kg, on Day 55, mouse GVHD model; read-out: concentration at 24 hours post-administration
Procedure: as §1

[9] = tested on: IL-2R signaling (pSTAT5); details: 1 μM, positive control
Procedure: Purified Tregs were expanded as indicated above. […] Tregs were then stimulated with 25 IU IL-2 (Peprotech) for 15 min, followed by fixation with 2% paraformaldehyde. […] Levels of pSTAT5 were analyzed on a BD LSRFortessa flow cytometer.
Next, the impact of MALT1i on IL2R signaling was investigated. IL-2R signaling results in phosphorylation of STAT5 (pSTAT5) and is dependent on JAK1/3. Therefore, a flow cytometric readout of pSTAT5 was used to measure IL-2R activity and the JAK1/3-inhibitor tofacitinib served as a positive control for inhibition of pSTAT5.

| Compound | reduction in the clinical score ([1]; 3 mg/kg dose) [%] | reduction in the clinical score ([1]; 10 mg/kg dose) [%] | reduction in the clinical score ([1]; 30 mg/kg dose) [%] | log10AUC value at ~50% reduction in the clinical score ([1]; rat CIA model) [μg*hr/mL] | reduction in the Treg levels ([2]; 3 mg/kg dose, CIA rats) [%] | reduction in the Treg levels ([2]; 10 mg/kg dose, CIA rats) [%] | reduction in the Treg levels ([2]; 30 mg/kg dose, CIA rats) [%] | reduction of Treg levels [3] [%] | IC90 [4] [µM] | dose-dependent efficacy (FIG. 12A) ([1]; rat CIA model) | also measured |
| --- | --- | --- | --- | --- | --- | --- | --- | --- | --- | --- | --- |
| CO[C@@H](C)c1c(Nc2ccc([C@H](N(C)C(=O)C3CCN(C(C)=O)CC3)C(F)(F)F)cc2)cnc2cc(Cl)nn12 [REO-076] | 23 | 42 | 74 | ~1.85 | 24 | 30 | 40 |  |  |  | log10AUC value at ~40% reduction in Treg levels ([2]; rat CIA model): ~2.25 μg*hr/mL |
| O=C(Nc1ccnc(C(F)(F)F)c1)c1cnn(-c2cccc3c(=O)[nH]ccc23)c1C(F)(F)F [REO-095] |  |  |  |  |  |  |  | 32 |  |  |  |
| CO[C@@H](C)c1c(Nc2ccc([C@H](N(C)C(=O)C3CCS(=O)(=O)CC3)C(F)(F)F)cc2)cnc2cc(Cl)nn12 [REO-528] | 24 | 59 | 74 | ~1.2 | 3 | 36 | 37 |  | 5.78 | showed efficacy in a rat CIA model in a dose-dependent manner | log10Cmax value at ~50% reduction in the clinical score ([1]; rat CIA model): ~3.3 ng/mL; log10Ctrough value at ~50% reduction in the clinical score ([1]; rat CIA model): ~2.2 ng/mL; qualitative efficacy (FIG. 11) ([1]; rat CIA model): high efficacy; dose-dependent reduction of Tregs (FIG. 12B) ([2]; rat CIA model): dose-dependent reduction of Tregs was observed; log10Cmax value at ~40% reduction in Treg levels ([2]; rat CIA model): ~3.9 ng/mL; log10Ctrough value at ~50% reduction in Treg levels ([2]; rat CIA model): ~2.6 ng/mL; qualitative Treg impact (FIG. 11) ([2]; rat CIA model): low Treg impact |
| O=C(Nc1ccnc(C(F)(F)F)c1)Nc1cnn2ccc(Cl)c2c1C1CC1 [REO-703] | 35 | 57 | 60 | ~1.2 |  |  |  |  | 4.95 | showed efficacy in a rat CIA model in a dose-dependent manner | reduction in the Treg levels ([2]; CIA rats, 3, 10 and 30 mg/kg): none of the doses of REO-703 resulted in a statistically significant reduction; also recorded: did not exhibit reduction of Tregs |
| CO[C@@H](C)c1c(NC(=O)Nc2cnc(-n3nccn3)c(Cl)c2)cnc2cc(Cl)nn12 [REO-751] |  |  |  |  |  |  |  | 76 |  |  | potency (IC50 values and Kd value) in comparison to REO-095 [5]: increased potency; mice achieving progression free survival [6]: 40%; difference in Treg with treatment [7]: No difference; concentration at 24 h [8]: 385 ng/mL |
| C[C@@H]1CCN(C(=O)CC#N)C[C@@H]1N(C)c1ncnc2[nH]ccc12 [tofacitinib, reference compound] |  |  |  |  |  |  |  |  |  |  | reduction in the endpoint clinical score ([1]; 5 mg/kg dose): 75%; basal levels of pSTAT5 in Tregs [9]: reduced |
